Results taken from US20210161997A1, “TREATING DISEASES VIA TARGETED MODULATION OF GENE SIGNALING NETWORKS” (Camp4 Therapeutics Corporation, priority 2018, published 2021).

What was measured:
UGT1A1 = assay: RNA-seq of UGT1A1 expression in compound-treated primary human hepatocytes; type: cell-based
Procedure, shortened: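 Cryopreserved primary human hepatocytes from three donors were plated in 24-well format, then treated with compound diluted from 1000× stocks in serum-free maintenance medium for about 16–18 h. Poly(A) RNA-seq log2 fold change was computed against vehicle/pan-experiment controls. Significance required FPKM ≥1, log2FC ≥0.5 and q ≤0.05.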

CPOX = assay: RNA-seq of CPOX expression in compound-treated primary human hepatocytes; type: cell-based; conditions: RNA-seq, primary human hepatocytes; significance FPKM ≥0.5, log 2(fold change) ≥0.3, q-value ≤0.05
Protocol: Human hepatocytes were obtained from two donors from Massachusetts General Hospital, namely MGH54 and MGH63, and one donor from Lonza, namely HUM4111B. Cryopreserved hepatocytes were cultured in plating media for 16 hours, transferred to maintenance media for 4 hours. Cultured on serum-free media for 2 hours, then a compound was added. The hepatocytes were maintained on the serum-free media for 16 hours prior to gene expression analysis. Primary human hepatocytes were stored in the vapor phase of a liquid nitrogen freezer (about −130° C.).
Human hepatocytes cultured as described above were plated in 24-well format, adding 375,000 cells per well in a volume of 500 ul plating medium. Four hours before treatment, cells were washed with PBS and the medium was changed to either: fresh maintenance medium (complete) or modified maintenance medium.
Compound stocks were prepared at 1000× final concentration and added in a 2-step dilution to the medium to reduce risk of a compound precipitating out of solution when added to the cells, and to ensure reasonable pipetting volumes. One at a time, each compound was first diluted 10-fold in warm (about 37° C.) modified maintenance medium (initial dilution=ID), mixed by vortexing, and the ID was diluted 100-fold into the cell culture (e.g. 5.1 ul into 1 well of a 24-well plate containing 0.5 mL medium). The plate was mixed by carefully swirling and after all wells were treated and returned to the incubator overnight. If desired, separate plates/wells were treated with vehicle-only controls and/or positive controls. If using multi-well plates, controls were included on each plate. After about 18 hours, cells were harvested for further analysis, e.g., ChIP-seq, RNA-seq, ATAC-seq, etc.
This protocol is a modified version of the following protocols: MagMAX mirVana Total RNA Isolation Kit User Guide (Applied Biosystems #MAN0011131 Rev B.0), NEBNext Poly(A) mRNA Magnetic Isolation Module (E7490), and NEBNext Ultra Directional RNA Library Prep Kit for Illumina (E7420) (New England Biosystems #E74901).
The MagMAX mirVana kit instructions (the section titled “Isolate RNA from cells” on pages 14-17) were used for isolation of total RNA from cells in culture. Two hundred μl of Lysis Binding Mix was used per well of the multiwell plate containing adherent cells (usually a 24-well plate).
For mRNA isolation and library prep, the NEBNext Poly(A) mRNA Magnetic Isolation Module and Directional Prep kit was used. RNA isolated from cells above was quantified, and prepared in […] of each sample in 50 μl of nuclease-free water. This protocol may be run in microfuge tubes or in a 96-well plate.
Standard QC were applied (read integrity, mapping statistics, library complexity, fragment bias) to remove unsatisfactory samples. […] Log 2 fold change and significance values were computed using PME count data (with replicates explicitly modeled versus pan-experiment controls), median ratio normalized, using maximum likelihood estimation rather than maximum a posteriori, and disabling the use of Cook's distance cutoff when determining acceptable adjusted p-values. […] RNA-seq signals were also normalized by read depth and visualized using the UCSC browser.
To identify small molecules that modulate target gene expression, primary human hepatocytes were prepared as a monoculture, and at least one small molecule compound was applied to the cells.
RNA-seq was performed to determine the effects of the compounds on the expression of the target genes in hepatocytes. Fold change was calculated by dividing the level of expression in the cell system that had been perturbed by the level of expression in an unperturbed system. Changes in expression having a p-value ≤0.05 were considered significant.
Significance was defined as an FPKM ≥0.5 a log 2(fold change) ≥0.3, and a q-value of ≤0.05.

Structure (SMILES) | UGT1A1 Fold Change (Log2) (UGT1A1) | CPOX Fold change (Log2) (CPOX)
S=C(NCc1ccc2c(c1)OCO2)N1CCN(c2ncnc3c2oc2ccccc23)CC1 [Amuvatinib] | 0.61 Log2 | 
O=C1CCC(N2C(=O)c3ccccc3C2=O)C(=O)N1 (centres unmarked) [Thalidomide] |  | 0.3 Log2
